ChEMBL document CHEMBL5233277, “Oxidative Metabolism as a Modulator of Kratom's Biological Actions” (J Med Chem, 2021)
The source made the active and inactive calls. The calls are words filed in the database; no cut-off is given here.

How the values were obtained:
[1] = Drug concentration in C57BL/6J mouse brain at 30 mg/kg, po measured after 24 hrs by LC-MS/MS analysis; type: ADME, organism-based; settings: in vivo, BLD = below limit of detection
[2] = Drug metabolism in human liver microsomes assessed as 3-dehydromitragynine formation at 1 uM incubated for 60 mins in presence of NADPH by LC-MS/MS analysis; type: ADME, Microsome; settings: 1 h
[3] = Drug metabolism in C57BL/6J mouse plasma assessed as mitragynine pseudoindoxyl formation at 30 mg/kg, po measured after 20 mins by LC-MS/MS analysis; type: ADME, organism-based; settings: in vivo
Cytochrome P450 3A [4] = molecular target: Cytochrome P450 3A (Homo sapiens, UniProt P08684+P20815+Q9HB55+P24462); test: Metabolic stability in human liver microsomes assessed as CYP3A-mediated decomposition by measuring half life at 1 uM incubated for 60 mins in presence of ketoconazole by LC-MS/MS analysis; type: ADME, Microsome; settings: 1 h
Mus musculus [5] = test: Antinociceptive activity in KOR knock out C57BL/6J mouse at 45 mg/kg, po measured after 20 mins; type: functional, organism-based
[6] = Drug metabolism in human liver microsomes assessed as 3-dehydromitragynine formation at 1 uM incubated for 60 mins in presence of ketoconazole by LC-MS/MS analysis; type: ADME, Microsome; settings: 1 h
[7] = Drug concentration in C57BL/6J mouse plasma at 30 mg/kg, po measured after 24 hrs by LC-MS/MS analysis; type: ADME, organism-based; settings: in vivo, BLD = below limit of detection
[8] = Drug metabolism in 129Sv6 mouse liver microsomes assessed as mitragynine pseudoindoxyl formation at 1 uM incubated for 60 mins by LC-MS/MS analysis; type: ADME, Microsome; settings: 1 h
[9] = Drug metabolism in human S9 fractions assessed as 3-dehydromitragynine formation at 1 uM incubated for 60 mins in presence of NADPH by LC-MS/MS analysis; type: ADME, subcellular, S9 fraction; settings: s9, 1 h
[10] = Drug metabolism in C57BL/6J mouse plasma assessed as mitragynine pseudoindoxyl formation at 30 mg/kg, po measured after 8 hrs by LC-MS/MS analysis; type: ADME, organism-based; settings: in vivo
[11] = Drug concentration in C57BL/6J mouse brain at 30 mg/kg, sc measured after 20 mins by LC-MS/MS analysis; type: ADME, organism-based; settings: read-out: Ct
[12] = Drug metabolism in C57BL/6J mouse liver microsomes assessed as mitragynine pseudoindoxyl formation at 1 uM incubated for 60 mins by LC-MS/MS analysis; type: ADME, Microsome; settings: 1 h
[13] = Drug metabolism in 129Sv6 mouse brain assessed as 3-dehydromitragynine formation at ED80, po; type: ADME, tissue-based
[14] = Drug metabolism in 129Sv6 mouse brain assessed as mitragynine pseudoindoxyl formation at 10 mg/kg, po measured after 15 mins by LC-MS/MS analysis; type: ADME, organism-based; settings: in vivo, 0.25 h
Mus musculus [15] = test: Antinociceptive activity in sc dosed 129Sv6 mouse model assessed as peak effect measured at 15 mins by radiant heat tail flick assay; type: functional; settings: 129Sv6, 0.25 h
Mus musculus [16] = test: Antinociceptive activity in DOR knock out 129Sv6 mouse at 10 mg/kg, po measured after 15 mins; type: functional, organism-based
Mus musculus [17] = test: Antinociceptive activity in po dosed C57BL/6J mouse model assessed as time required for peak effect at ED50 by radiant heat tail flick assay; type: functional
[18] = Stability in human liver microsomes assessed as half life at 1 uM incubated for 60 mins by LC-MS/MS analysis; type: ADME, Microsome; settings: 1 h
Mus musculus [19] = test: Antinociceptive activity in DOR knock out C57BL/6J mouse at 45 mg/kg, po measured after 20 mins; type: functional, organism-based
[20] = Drug metabolism in human S9 fraction assessed as mitragynine pseudoindoxyl formation at 1 uM incubated for 60 mins in absence of NADPH by LC-MS/MS analysis; type: ADME, subcellular; settings: s9, 1 h
Mus musculus [21] = test: Antinociceptive activity in KOR knock out 129Sv6 mouse at 10 mg/kg, po measured after 15 mins; type: functional, organism-based
Mus musculus [22] = test: Antinociceptive activity in sc dosed C57BL/6J mouse model assessed as peak effect measured at 20 mins by radiant heat tail flick assay; type: functional
Mus musculus [23] = test: Antinociceptive activity in sc dosed C57BL/6J mouse model assessed as time required for peak effect at ED50 by radiant heat tail flick assay; type: functional
Cytochrome P450 3A [24] = molecular target: Cytochrome P450 3A (Mus musculus, UniProt O09158+Q64464+Q64481+Q9JMA7); test: Metabolic stability in 129Sv6 mouse liver microsomes assessed as CYP3A-mediated decomposition by measuring half life at 1 uM incubated for 60 mins in presence of ketoconazole by LC-MS/MS analysis; type: ADME, Microsome; settings: 1 h
[25] = Drug metabolism in human S9 fraction assessed as compound depletion at 1 uM incubated for 60 mins in presence of NADPH by LC-MS/MS analysis; type: ADME, subcellular; settings: s9, 1 h
[26] = Drug metabolism in 129Sv6 mouse plasma assessed as mitragynine pseudoindoxyl formation at 10 mg/kg, po measured after 15 mins by LC-MS/MS analysis; type: ADME, organism-based; settings: in vivo, 0.25 h
[27] = Drug metabolism in C57BL/6J mouse brain assessed as mitragynine pseudoindoxyl formation at 30 mg/kg, po measured after 20 mins by LC-MS/MS analysis; type: ADME, organism-based; settings: in vivo
[28] = Drug metabolism in human liver microsomes assessed as mitragynine pseudoindoxyl formation at 1 uM incubated for 60 mins in presence of NADPH by LC-MS/MS analysis; type: ADME, Microsome; settings: 1 h
[29] = Stability in C57BL/6J mouse liver microsomes assessed as half life at 1 uM incubated for 60 mins by LC-MS/MS analysis; type: ADME, Microsome; settings: 1 h
[30] = Toxicity in C57BL/6J mouse assessed as effect on locomotion at 20 mg/kg, po measured after 3 hrs; type: organism-based; settings: in vivo
[31] = Drug metabolism in human liver microsomes assessed as 3-dehydromitragynine formation at 1 uM incubated for 60 mins in absence of NADPH by LC-MS/MS analysis; type: ADME, Microsome; settings: 1 h
[32] = Drug metabolism in human liver microsomes assessed as compound depletion at 1 uM incubated for 60 mins in presence of NADPH by LC-MS/MS analysis; type: ADME, Microsome; settings: 1 h
[33] = Drug metabolism in human S9 fractions assessed as 3-dehydromitragynine formation at 1 uM incubated for 60 mins in absence of NADPH by LC-MS/MS analysis; type: ADME, subcellular, S9 fraction; settings: s9, 1 h
[34] = Drug concentration in C57BL/6J mouse brain at 30 mg/kg, po measured after 20 mins by LC-MS/MS analysis; type: ADME, organism-based; settings: read-out: Ct
[35] = Drug metabolism in C57BL/6J mouse brain assessed as 3-dehydromitragynine formation at ED80, po; type: ADME, tissue-based
[36] = Drug metabolism in C57BL/6J mouse liver microsomes assessed as 3-dehydromitragynine formation at 1 uM incubated for 60 mins in presence of ketoconazole by LC-MS/MS analysis; type: ADME, Microsome; settings: 1 h
[37] = Drug metabolism in human S9 fraction assessed as 3-dehydromitragynine formation at 1 uM incubated for 60 mins in presence of NADPH by LC-MS/MS analysis; type: ADME, subcellular; settings: s9, 1 h
Mus musculus [38] = test: Antinociceptive activity in MOR knock out 129Sv6 mouse at 10 mg/kg, po measured after 15 mins; type: functional, organism-based
[39] = Drug metabolism in human liver microsomes assessed as compound depletion at 1 uM incubated for 60 mins in absence of NADPH by LC-MS/MS analysis; type: ADME, Microsome; settings: 1 h
Mus musculus [40] = test: Antinociceptive activity in po dosed C57BL/6J mouse model assessed as peak effect measured at 20 mins by radiant heat tail flick assay; type: functional

For `CC[C@@H]1CN2CCc3c([nH]c4cccc(OC)c34)[C@@H]2C[C@@H]1/C(=C\OC)C(=O)OC`, the Ct [1] was “Bld”, the Drug metabolism [2] was “Metabolite_Detected” and the Drug metabolism [3] was 20 nM. The t1/2 (Cytochrome P450 3A [4]) was 37.4 min, the Activity (Mus musculus [5]) was “Active” and the Drug metabolism [6] was “Metabolite_Detected”. For the same compound, the Cp [7] was “Bld”, the Drug metabolism [8] was “Metabolite_Detected” and the Drug metabolism [9] was “Metabolite_Detected”. For the same compound, the Drug metabolism [10] was “Metabolite_Notdetected”, the concentration at 20 min [11] was 9.74 µM and the Drug metabolism [12] was “Metabolite_Detected”. It also gave a Drug metabolism [13] of 0.035 µM, a Drug metabolism [14] of 180 nM and an ED50 (Mus musculus [15]) of 57.3 mg/kg. For the same compound, the Activity (Mus musculus [16]) was “Active”, the Time (Mus musculus [17]) was 15 min and the t1/2 [18] was 7.5 min. The Activity (Mus musculus [19]) was “Active”, the Drug metabolism [20] was “Metabolite_Notdetected” and the Activity (Mus musculus [21]) was “Active”. For the same compound, the ED50 (Mus musculus [22]) was 25.9 mg/kg, the Time (Mus musculus [23]) was 15 min and the t1/2 (Cytochrome P450 3A [24]) was 24.4 min. For the same compound, the Drug metabolism [25] was “Metabolite_Detected”, the Drug metabolism [26] was 13 nM and the Drug metabolism [27] was 40 nM. The Drug metabolism [28] was “Metabolite_Detected”, the t1/2 [29] was 5.9 min and the Activity [30] was “Non-Toxic”. The Drug metabolism [31] was “Metabolite_Detected”, the Drug metabolism [32] was “Metabolite_Detected” and the Drug metabolism [33] was “Metabolite_Detected”. For the same compound, the concentration at 20 min [34] was 6.63 µM, the Drug metabolism [35] was 0.094 µM and the Drug metabolism [36] was “Metabolite_Detected”. The Drug metabolism [37] was “Metabolite_Detected”, the Activity (Mus musculus [38]) was “inactive” and the Drug metabolism [39] was “Metabolite_Notdetected”. For the same compound, the ED50 (Mus musculus [40]) was 6.25 mg/kg.
